Data taken from paper PMC8333425, “Discovery of a dual Ras and ARF6 inhibitor from a GPCR endocytosis screen” (Nature Communications, 2021).
“And” between values parts separate entries of the source, which are not always exact repeats. Equal entries are not always repeated.

Test system: Ras
Experiment: GST-Raf1-RBD pull-down of AT1R-mediated Ras activation
Type: cell-based, human
Conditions: for Ras-GTP over total Ras, GST-Raf1-RBD pull-down, AT1R: Comp 21 50 μM, individual experiments
Excerpt: Since 21 inhibited both ERK1/2 and Akt activation by GPCRs and EGFR, we looked at a common target involved in both pathways. The small G protein Ras is an upstream regulator of both Ras-RAF-MEK-ERK and PI3K/Akt signaling pathways[35],[36]. Therefore, we explored 21’s ability to inhibit Ras activity using GST-Raf1-Ras-binding domain (RBD) in a pull-down assay. A reduction of 60% in GTP-bound Ras was noticed in pulled-down from cells treated with 21 and stimulated with either AT1R or EGFR, as compared to vehicle-treated cells (Fig. 4a, b). Complementary to this in vitro assay, we generated a Ras BRET assay, using the Raf-Ras binding domain tagged with RlucII (Raf1-RBD-RlucII) and the rGFP at the PM (rGFP-CAAX) (Supplementary Fig. 3c), to assess 21’s effects on Ras activation kinetics. […] Overexpression of either the active form of Ras (G12V) or SOS1 anchored at the PM (SOS-CAAX) produced a robust basal BRET signal that was no longer modulated by receptor activation (Supplementary Fig. 3d). […] 21’s potency to inhibit ARF6 and Ras is also consistent with its relative efficacy for inhibiting AT1R internalization and MAPK, respectively, when used at 50 μM (e.g., around 7 and 70 times the respective IC50s) (Figs. 2e and 3a). We also assessed if 21 was acting as a pan small G protein inhibitor by testing its effect on Rho and Rac/Cdc42. […] To assess Rac/Cdc42 activity, we generated a Rac/Cdc42 BRET sensor that consisted of the PAK-CRIB domain fused to RlucII (PAK-CRIB-RlucII) and the rGFP-CAAX (Supplementary Fig. 3e). PAK-CRIB, which binds to active Rac/Cdc42, was recruited to the PM upon AngII stimulation of cells and generated a robust BRET signal, which was blocked by the overexpression of the DN Rac1-T17N. Overexpression of the constitutively active Rac1-Q61L increased the basal BRET, which was no longer modulated by AT1R stimulation (Supplementary Fig. 3f).
Activation of ARF1, ARF6, Ras, and Rho were assessed by using GST pull-down assays. […] ImageLab 5.2 software was used to quantify the digital blots as fold of the amount of pulled down protein over total protein. […]

Compound: CC(C)C(=O)N1CCN(c2ccc(NC(=O)c3cc4ccccc4o3)cc2Cl)CC1 [Compound 21]
- reduction in GTP-bound Ras, AT1R-stimulated cells (pull-down) (50 μM, compared to vehicle-treated cells): 60%
- Ras-GTP over total Ras, GST-Raf1-RBD pull-down, AT1R (AngII): 0.2615 and 0.2571 and 0.1009 and 0.2909 and 0.08351
- Ras-GTP over total Ras, GST-Raf1-RBD pull-down, AT1R (Ctrl (no AngII)): 0.2526 and 0.08678 and 0.1353 and 0.1074 and 0.09399
